Experimental data taken from patent US20090227559A1, “SNPS IN THE APOB GENE AND SUSCEPTIBILITY TO INCREASED LEVELS OF ALAT FOLLOWING XIMELAGATRAN ADMINISTRATION” (AstraZeneca AB, priority 2005, published 2009).

Assay: Clinical trials, longer-term ximelagatran treatment: ALAT elevation in patients
Format: in vivo, human
Text: Alanine aminotransferase (ALAT) is an enzyme mostly expressed in the liver (EC 2.6.1.2). It is also called serum glutamate pyruvate transaminase (SGPT) or alanine transaminase (ALT). This enzyme is release into the plasma by liver cell death, which is a normal event. However, when liver cell death increases, ALAT levels rise above the normal range. The spillover of this enzyme into blood is routinely measured as a marker of abnormal liver-cell damage. For example, alcoholic or viral hepatitis will increase ALAT levels, as will severe congestive heart failure. ALAT is also markedly raised in hepatitis and other acute liver damage. An elevated ALAT in the presence of normal levels of plasma alkaline phosphatase helps distinguish liver disease caused by liver-cell damage from diseases caused by problems in biliary ducts. Elevations of ALAT are normally measured in multiples of the upper limit of normal (ULN), with a reference range of 15-45 U/L in most laboratories. In 1987, in a study of 19,877 healthy Air Force recruits, only 99 (0.5%) had confirmed ALAT elevations (as reviewed in Green & Flamm (2002) Gastroenterology 123:1367-1384).
Subject to the future regulatory approval of ximelagatran, regular liver function testing (LFT) using an appropriate algorithm may be required if ximelagatran is used for treatment periods exceeding a month. Studies are currently ongoing to try and establish the mechanism of the ALAT elevations, and their hepatic and overall clinical significance.

For CCOC(=O)CN[C@@H](C(=O)N1CC[C@H]1C(=O)NCc1ccc(/C(N)=N\O)cc1)C1CCCCC1 [ximelagatran, EtOOC—CH2—(R)Cgl-Aze-Pab-OH], the “symptoms accompanying ALAT increases” value (longer-term treatment) was “mainly asymptomatic”, the “patients exhibiting levels of alanine aminotransferase (ALAT) 3-fold or more above the upper limit of normal (≧3×ULN)” value (longer-term treatment (>35 days), 1.2% in the comparator groups) was 7.9% and the “reversibility of ALAT increases” value (regardless of whether treatment was continued or discontinued) was “reversible in most patients”. The “time of occurrence of the increase in ALAT values” (usually, from start of treatment) was no more than 6 months.
